What was measured:
[1] = test system: panel of NCl60 cell lines; assay: IC50 in NCI60 panel (overall); format: cell-based; details: Homo sapiens, general order, read-out: antitumor activity (IC50) in general
Description: (§1) On the other hand, the values of IC50 were determined in the panel of NCl60 cell lines for compound 10.
(§2) A total of 2 independent experiments were carried out with assays in triplicate for the compound and cell line. All those assays where an IC50 value was not reached in the highest concentration of 1E-05 M are represented by “>1E-05”. In these cases, the standard deviation cannot be calculated and for that reason it is calculated as “-”.

Rec-1 = assay: cell viability assay; format: cell-based, human; details: Rec-1 B-cell lymphoma (MCL), 48 h, with respect to untreated control cells
U251 = assay: cell viability assay; format: cell-based, human; details: U251 glioblastoma, 72 h, with respect to untreated control cells
NCI-H522 (Lung) = assay: NCI60 panel IC50; format: cell-based, human; details: lung NCl-H522
Description: as §1, §2

HCT-15 (Colon) = assay: NCI60 panel IC50; format: cell-based, human
Description: as §1, §2

OVCAR-8 (Ovarian) = assay: NCI60 panel IC50; format: cell-based, human
Description: as §1, §2

OVCAR-4 (Ovarian) = assay: NCI60 panel IC50; format: cell-based, human
Description: as §1, §2

786-O (Renal) = assay: NCI60 panel IC50; format: cell-based, human
Description: as §1, §2

SK-MEL-28 (Melanoma) = assay: NCI60 panel IC50; format: cell-based, human
Description: as §1, §2

LOX-IMVI (Melanoma) = assay: NCI60 panel IC50; format: cell-based, human
Description: as §1, §2

HT-29 (Colon) = assay: NCI60 panel IC50; format: cell-based, human
Description: as §1, §2

OVCAR-5 (Ovarian) = assay: NCI60 panel IC50; format: cell-based, human
Description: as §1, §2

SMILES: CN1CCCNc2c(c(=O)c2=O)NCCCN(C)CCCNc2c(c(=O)c2=O)NCCCN(C)CCCNc2c(c(=O)c2=O)NCCCN(C)CCCNc2c(c(=O)c2=O)NCCCN(C)CCCNc2c(c(=O)c2=O)NCCC1 [Compound 10]
- IC50 [1]: 1 to 10 µM
- % Cell viability (Rec-1): 44%
- % Cell viability (U251): 85%
- sensitivity of the line to the tested compound (NCI-H522 (Lung)): resistant
- IC50 (HCT-15 (Colon); Homo sapiens, HCT-15 (Colon), NCI60 panel, highest concentration 1E-05 M): > 10 µM
- sensitivity of the line to the tested compound (HCT-15 (Colon); colon HCTI5): resistant
- IC50 (OVCAR-8 (Ovarian); Homo sapiens, OVCAR-8 (Ovarian), NCI60 panel, highest concentration 1E-05 M): > 10 µM
- sensitivity of the line to the tested compound (OVCAR-8 (Ovarian); ovarian OVCAR-8): resistant
- IC50 (OVCAR-4 (Ovarian); Homo sapiens, OVCAR-4 (Ovarian), NCI60 panel, highest concentration 1E-05 M): > 10 µM
- sensitivity of the line to the tested compound (OVCAR-4 (Ovarian); ovarian OVCAR-4): resistant
- IC50 (786-O (Renal); Homo sapiens, 786-0, 786-O (Renal), NCI60 panel, highest concentration 1E-05 M): > 10 µM
- sensitivity of the line to the tested compound (786-O (Renal); renal 786-O): resistant
- IC50 (SK-MEL-28 (Melanoma); Homo sapiens, SK-MEL-28 (Melanoma), NCI60 panel, highest concentration 1E-05 M): > 10 µM
- sensitivity of the line to the tested compound (SK-MEL-28 (Melanoma); melanoma SK-MEL-28): resistant
- IC50 (LOX-IMVI (Melanoma); Homo sapiens, LOX-IMVI (Melanoma), NCI60 panel, highest concentration 1E-05 M): > 10 µM
- sensitivity of the line to the tested compound (LOX-IMVI (Melanoma); melanoma LOX-IMVI): resistant
- IC50 (HT-29 (Colon); Homo sapiens, HT-29 (Colon), NCI60 panel, highest concentration 1E-05 M): > 10 µM
- sensitivity of the line to the tested compound (HT-29 (Colon); colon HT-29): resistant
- IC50 (OVCAR-5 (Ovarian); Homo sapiens, OVCAR-5 (Ovarian), NCI60 panel, highest concentration 1E-05 M): > 10 µM
- sensitivity of the line to the tested compound (OVCAR-5 (Ovarian); ovarian OVCAR-5): resistant
